Numbers after ± are expanded uncertainties.
Assay: xn = mol fraction of the nth substance listed
Details: 323.15 K

CCCCC [pentane] + O=C=O
Details	mass density [kg/m3]
9400 kPa, Fluid (supercritical or subcritical phases), x2 = 0.939	522 ± 3
9410 kPa, Fluid (supercritical or subcritical phases), x2 = 0.916	590 ± 4
9440 kPa, Fluid (supercritical or subcritical phases), x2 = 0.87	630 ± 4
9480 kPa, Fluid (supercritical or subcritical phases), x2 = 0.901	601 ± 4
9510 kPa, Fluid (supercritical or subcritical phases), x2 = 0.939	534 ± 3
9550 kPa, Fluid (supercritical or subcritical phases), x2 = 0.791	688 ± 4
9560 kPa, Fluid (supercritical or subcritical phases), x2 = 0.671	726 ± 5
9600 kPa, Fluid (supercritical or subcritical phases), x2 = 0.901	607 ± 4
9630 kPa, Fluid (supercritical or subcritical phases), x2 = 0.916	603 ± 4
9630 kPa, Fluid (supercritical or subcritical phases), x2 = 0.939	545 ± 3
9670 kPa, Fluid (supercritical or subcritical phases), x2 = 0.87	638 ± 4
9740 kPa, Fluid (supercritical or subcritical phases), x2 = 0.214	631 ± 4
9740 kPa, Fluid (supercritical or subcritical phases), x2 = 0.901	613 ± 4
9790 kPa, Fluid (supercritical or subcritical phases), x2 = 0.939	558 ± 4
9920 kPa, Fluid (supercritical or subcritical phases), x2 = 0.901	619 ± 4
9940 kPa, Fluid (supercritical or subcritical phases), x2 = 0.916	615 ± 4
9970 kPa, Fluid (supercritical or subcritical phases), x2 = 0.939	572 ± 4
10000 kPa, Fluid (supercritical or subcritical phases), x2 = 0.901	622 ± 4
10010 kPa, Fluid (supercritical or subcritical phases), x2 = 0.87	645 ± 4
10080 kPa, Fluid (supercritical or subcritical phases), x2 = 0.901	626 ± 4
10160 kPa, Fluid (supercritical or subcritical phases), x2 = 0.901	628 ± 4
10170 kPa, Fluid (supercritical or subcritical phases), x2 = 0.939	586 ± 4
10240 kPa, Fluid (supercritical or subcritical phases), x2 = 0.36	651 ± 4
10270 kPa, Fluid (supercritical or subcritical phases), x2 = 0.901	633 ± 4
10290 kPa, Fluid (supercritical or subcritical phases), x2 = 0.791	697 ± 4
10300 kPa, Fluid (supercritical or subcritical phases), x2 = 0.916	628 ± 4
10420 kPa, Fluid (supercritical or subcritical phases), x2 = 0.87	654 ± 4
10420 kPa, Fluid (supercritical or subcritical phases), x2 = 0.901	637 ± 4
10440 kPa, Fluid (supercritical or subcritical phases), x2 = 0.939	600 ± 4
10620 kPa, Fluid (supercritical or subcritical phases), x2 = 0.901	642 ± 4
10710 kPa, Fluid (supercritical or subcritical phases), x2 = 0.671	734 ± 5
10730 kPa, Fluid (supercritical or subcritical phases), x2 = 0.916	642 ± 4
10760 kPa, Fluid (supercritical or subcritical phases), x2 = 0.901	647 ± 4
10790 kPa, Fluid (supercritical or subcritical phases), x2 = 0.939	616 ± 4
10850 kPa, Fluid (supercritical or subcritical phases), x2 = 0.87	661 ± 4
10950 kPa, Fluid (supercritical or subcritical phases), x2 = 0.901	652 ± 4
11040 kPa, Fluid (supercritical or subcritical phases), x2 = 0.791	703 ± 4
11060 kPa, Fluid (supercritical or subcritical phases), x2 = 0.214	634 ± 4
11220 kPa, Fluid (supercritical or subcritical phases), x2 = 0.901	656 ± 4
11230 kPa, Fluid (supercritical or subcritical phases), x2 = 0.36	654 ± 4
11250 kPa, Fluid (supercritical or subcritical phases), x2 = 0.939	635 ± 4
11260 kPa, Fluid (supercritical or subcritical phases), x2 = 0.916	657 ± 4
11320 kPa, Fluid (supercritical or subcritical phases), x2 = 0.939	639 ± 4
11440 kPa, Fluid (supercritical or subcritical phases), x2 = 0.901	661 ± 4
11450 kPa, Fluid (supercritical or subcritical phases), x2 = 0.87	670 ± 4
11610 kPa, Fluid (supercritical or subcritical phases), x2 = 0.901	666 ± 4
11890 kPa, Fluid (supercritical or subcritical phases), x2 = 0.901	672 ± 4
11910 kPa, Fluid (supercritical or subcritical phases), x2 = 0.791	713 ± 4
11930 kPa, Fluid (supercritical or subcritical phases), x2 = 0.916	672 ± 4
11970 kPa, Fluid (supercritical or subcritical phases), x2 = 0.87	678 ± 4
11980 kPa, Fluid (supercritical or subcritical phases), x2 = 0.671	740 ± 5
12080 kPa, Fluid (supercritical or subcritical phases), x2 = 0.901	675 ± 4
12440 kPa, Fluid (supercritical or subcritical phases), x2 = 0.901	681 ± 4
12460 kPa, Fluid (supercritical or subcritical phases), x2 = 0.36	656 ± 4
12560 kPa, Fluid (supercritical or subcritical phases), x2 = 0.214	638 ± 4
12580 kPa, Fluid (supercritical or subcritical phases), x2 = 0.87	687 ± 4
12760 kPa, Fluid (supercritical or subcritical phases), x2 = 0.901	686 ± 4
12790 kPa, Fluid (supercritical or subcritical phases), x2 = 0.916	687 ± 4
13000 kPa, Fluid (supercritical or subcritical phases), x2 = 0.901	690 ± 4
13060 kPa, Fluid (supercritical or subcritical phases), x2 = 0.791	721 ± 5
13280 kPa, Fluid (supercritical or subcritical phases), x2 = 0.901	695 ± 4
13290 kPa, Fluid (supercritical or subcritical phases), x2 = 0.87	695 ± 4
13530 kPa, Fluid (supercritical or subcritical phases), x2 = 0.901	698 ± 4
13560 kPa, Fluid (supercritical or subcritical phases), x2 = 0.36	659 ± 4
13800 kPa, Fluid (supercritical or subcritical phases), x2 = 0.671	749 ± 5
13800 kPa, Fluid (supercritical or subcritical phases), x2 = 0.901	701 ± 4
13860 kPa, Fluid (supercritical or subcritical phases), x2 = 0.214	640 ± 4
13860 kPa, Fluid (supercritical or subcritical phases), x2 = 0.916	705 ± 4
14040 kPa, Fluid (supercritical or subcritical phases), x2 = 0.87	704 ± 4
14050 kPa, Fluid (supercritical or subcritical phases), x2 = 0.901	705 ± 4
14440 kPa, Fluid (supercritical or subcritical phases), x2 = 0.901	712 ± 4
14470 kPa, Fluid (supercritical or subcritical phases), x2 = 0.916	715 ± 4
14510 kPa, Fluid (supercritical or subcritical phases), x2 = 0.791	732 ± 5
14700 kPa, Fluid (supercritical or subcritical phases), x2 = 0.901	714 ± 4
14730 kPa, Fluid (supercritical or subcritical phases), x2 = 0.87	713 ± 4
14810 kPa, Fluid (supercritical or subcritical phases), x2 = 0.36	662 ± 4
15220 kPa, Fluid (supercritical or subcritical phases), x2 = 0.214	642 ± 4
Liquid, Other PVT measurement, x2 = 0.214	603 ± 2
Liquid, Other PVT measurement, x2 = 0.36	632 ± 2
Liquid, Other PVT measurement, x2 = 0.671	702 ± 2
Liquid, Other PVT measurement, x2 = 0.791	651 ± 2
Liquid, Other PVT measurement, x2 = 0.87	573 ± 2
Liquid, Other PVT measurement, x2 = 0.901	511 ± 2

— the NIST ThermoML archive (doi:10.1021/je034087q)
